Key:
murine NaPi-IIb = target: T1, murine NaPi-IIb (Mus musculus, UniProt Q9DBP0); test: Inhibition of 33P uptake in mouse NaPi-IIb T-REX-CHO stable cell line; format: cell-based; details: 60 min at RT, geometric mean (SD), read-out: m NaPi-IIb rel IC50 (nM), (SD)
T1 construct: expressed in transfected cells
T1 sequence (Q9DBP0 1-697): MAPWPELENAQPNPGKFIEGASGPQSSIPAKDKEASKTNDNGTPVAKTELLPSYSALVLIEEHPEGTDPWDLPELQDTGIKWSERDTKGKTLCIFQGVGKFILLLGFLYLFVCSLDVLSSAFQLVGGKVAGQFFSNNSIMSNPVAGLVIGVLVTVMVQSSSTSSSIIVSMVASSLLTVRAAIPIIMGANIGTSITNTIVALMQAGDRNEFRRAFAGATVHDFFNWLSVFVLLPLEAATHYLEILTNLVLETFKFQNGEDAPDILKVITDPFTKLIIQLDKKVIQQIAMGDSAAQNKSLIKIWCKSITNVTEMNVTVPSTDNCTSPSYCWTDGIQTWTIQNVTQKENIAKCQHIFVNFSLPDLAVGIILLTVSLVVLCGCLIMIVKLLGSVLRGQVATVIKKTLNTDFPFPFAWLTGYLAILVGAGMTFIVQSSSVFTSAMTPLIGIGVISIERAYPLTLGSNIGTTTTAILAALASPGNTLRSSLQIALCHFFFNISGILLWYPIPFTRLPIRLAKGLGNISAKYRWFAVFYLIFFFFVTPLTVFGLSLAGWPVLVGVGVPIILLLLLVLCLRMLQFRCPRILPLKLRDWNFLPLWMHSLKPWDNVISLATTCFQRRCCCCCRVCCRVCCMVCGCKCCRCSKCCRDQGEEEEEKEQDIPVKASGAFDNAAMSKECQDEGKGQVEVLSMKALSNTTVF
Description: Inhibition of ^33P uptake is measured in human and mouse NaPi-IIb T-REX™-CHO stable cell lines. cDNA for NaPi-IIb is subcloned in plasmid SLC34A2 pcDNA5/TO (human) and SLC34A2 pcDNA5/TO (mouse) and stable cell lines are generated from clonal isolation for both human and mouse respectively. Mouse and human stable lines are maintained in continuous culture in growth media (Dulbecco's Modified Eagle Medium: Nutrient Mixture F-12 (3:1), 10% Heat Inactivated FBS, 1% penicillin/streptomycin/FUNGIEZONE® (HYCLONE™), 20 mM HEPES, 250 μg/mL hygromycin, 5 μg/mL blasticidin). Cells are harvested from T225 cell culture flasks (CORNING®) using 0.25% Trypsin, and plated in 96 well CYTOSTAR-T™ scintillating microplates (Amersham Systems) at 40,000 cells/well in 100 μL of growth media plus 100 ng/mL of tetracycline. Cell plates are incubated overnight at 37° C. and 5% C02. The next day, compounds are serially diluted using one to three dilutions in 100% DMSO. Cell plates may remain in the incubator until ready to be assayed. A cell plate is removed from the incubator and media removed. Cells are washed 3 times with 200 μL assay buffer (137 mM NaCl, 5.4 mM KCl, 2.8 mM CaCl2), 1.2 mM MgSO4, and 14 mM Tris-HCl buffer, pH˜7.5), removing buffer in between washes. Serially diluted compounds in DMSO are further diluted 50 fold in assay buffer and 50 μL added to the CYTOSTAR-T™ assay plate, immediately followed by the addition of 50 μL of ^33P solution (PERKIN-ELMER®, Walton, Mass.; 0.05 μCi/50 μL). CYTOSTAR-T™ assay plates are covered with foil to protect from light and incubated for 60 min at RT. After the 60 min incubation, 100 μL of a stop solution (assay buffer+400 μM Phloretin) is added to the assay plate to stop ^33P uptake. The plate is immediately read on a Wallac MICROBETA® Trilux liquid scintillation counter and luminometer after stop solution is added with 1 minute count per well. Each plate may be processed separately and staggered in time so there may be no delay in counting after stop solution is added. Percent inhibition at all concentrations tested (final assay concentrations 100-0.005 μM) are calculated relative to 1% DMSO (minimum effect), and the effect of 100 μM of a fully efficacious NaPi-IIb inhibitor (maximum effect). IC50 values were calculated using a 4 parameter logistic curve fitting equation. The numbers presented are the geometric means with standard deviation (SD) calculated where n is the number of runs. Thus. Table 1 describes the relative IC50 values for Examples 1-28 against human NaPi-IIb and murine NaPi-IIb, respectively.

human NaPi-IIb = target: T2, human NaPi-IIb (Homo sapiens, UniProt O95436); test: Inhibition of 33P uptake in human NaPi-IIb T-REX-CHO stable cell line; format: cell-based; details: 60 min at RT, geometric mean (SD), read-out: h NaPi-IIb rel IC50 (nM), (SD)
T2 construct: expressed in transfected cells
T2 sequence (O95436 1-690): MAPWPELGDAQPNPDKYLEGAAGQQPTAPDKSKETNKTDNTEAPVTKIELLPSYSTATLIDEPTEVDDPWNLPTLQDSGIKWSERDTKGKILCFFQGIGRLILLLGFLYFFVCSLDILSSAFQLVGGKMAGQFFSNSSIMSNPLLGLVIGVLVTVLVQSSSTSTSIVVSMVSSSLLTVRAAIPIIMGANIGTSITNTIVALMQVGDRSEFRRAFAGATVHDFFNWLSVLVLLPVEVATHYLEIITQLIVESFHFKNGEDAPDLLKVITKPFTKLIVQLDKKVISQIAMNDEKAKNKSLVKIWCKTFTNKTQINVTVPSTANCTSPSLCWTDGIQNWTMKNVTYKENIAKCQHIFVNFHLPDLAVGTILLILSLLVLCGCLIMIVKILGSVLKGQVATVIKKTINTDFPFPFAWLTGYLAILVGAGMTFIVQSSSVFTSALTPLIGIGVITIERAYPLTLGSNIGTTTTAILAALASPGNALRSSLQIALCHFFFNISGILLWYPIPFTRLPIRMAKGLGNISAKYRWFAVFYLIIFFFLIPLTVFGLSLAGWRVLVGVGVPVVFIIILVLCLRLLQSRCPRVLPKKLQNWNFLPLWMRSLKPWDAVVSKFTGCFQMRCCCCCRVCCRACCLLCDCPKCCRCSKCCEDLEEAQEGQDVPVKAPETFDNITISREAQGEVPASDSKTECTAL
Description: Inhibition of ^33P uptake is measured in human and mouse NaPi-IIb T-REX™-CHO stable cell lines. cDNA for NaPi-IIb is subcloned in plasmid SLC34A2 pcDNA5/TO (human) and SLC34A2 pcDNA5/TO (mouse) and stable cell lines are generated from clonal isolation for both human and mouse respectively. Mouse and human stable lines are maintained in continuous culture in growth media (Dulbecco's Modified Eagle Medium: Nutrient Mixture F-12 (3:1), 10% Heat Inactivated FBS, 1% penicillin/streptomycin/FUNGIEZONE® (HYCLONE™), 20 mM HEPES, 250 μg/mL hygromycin, 5 μg/mL blasticidin). […] Cell plates may remain in the incubator until ready to be assayed. […] The plate is immediately read on a Wallac MICROBETA® Trilux liquid scintillation counter and luminometer after stop solution is added with 1 minute count per well. […] Percent inhibition at all concentrations tested (final assay concentrations 100-0.005 μM) are calculated relative to 1% DMSO (minimum effect), and the effect of 100 μM of a fully efficacious NaPi-IIb inhibitor (maximum effect). IC50 values were calculated using a 4 parameter logistic curve fitting equation. The numbers presented are the geometric means with standard deviation (SD) calculated where n is the number of runs. […]

CN1CCN(CC(=O)N2C3CCC2CN(Cc2cccc(C(=O)Nc4sc5c(c4C(=O)Nc4cc(F)c(CCc6ccc(C(=O)O)cc6)c(F)c4)CCCC5)c2)C3)CC1 [Example 26, 4-[2-[2,6-difluoro-4-[[2-[[3-[[8-[2-(4-methylpiperazin-1-yl)acetyl]-3,8-diazabicyclo[3.2.1]octan-3-yl]methyl]benzoyl]amino]-4,5,6,7-tetrahydrobenzothiophene-3-carbonyl]amino]phenyl]ethyl]benzoic Acid]
IC50 (murine NaPi-IIb): 15.3 nM | IC50 (human NaPi-IIb): 2.4 nM

From patent US10934280B2, “Condensed thiophene derivatives useful as NaPi-IIb inhibitors” (Eli Lilly and Company, priority 2016, dated 2021)
